Measurements reported in patent publication US11639343B2, “Compounds targeting and degrading BCR-ABL protein and its antitumor application” (ShanghaiTech University, priority 2019, dated 2023).

Columns and labels:
[1] = Body weight and toxicity in the K562 transplanted mouse model; format: in vivo; settings: NOD-SCID mice, during the experiment period
Text: (§1) (2) BCR-ABL+K562 cell transplanted mouse model: 5*106 k562 Luc cells were inoculated into the subcutaneous of immunodeficient NOD-SCID mice. After 2 weeks, the tumor volume of mice was nearly 200 mm^3. The mice were randomly divided into 5 groups. […] At the same time, the mice were imaged in vivo to observe the tumor-bearing condition. Then stop the administration and observe the recurrence of the tumor.

HEK293 (BCR-ABL-) cells = assay: CCK-8 proliferation inhibition, HEK293 cells; settings: Homo sapiens, HEK293, 48 h, read-out: Proliferative inhibitory activity (IC50, nM) HEK293 (BCR-ABL-);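 also: Ten-point threefold dilution series starting at 10 µM, CCK-8 absorbance at 450 nm read after 2 h reagent incubation, DMSO-treated cells as negative control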
c-ABL protein [2] = target: T1, c-ABL protein (Homo sapiens, UniProt P00519); assay: Degradation of c-ABL protein in vivo; design: from tissue; host or cells: in vivo
Text: (§2) We further study whether PROTAD compound of the disclosure can induce BCR-ABL protein degradation in vivo. We still took the compound SIAIS151178 of Dasa-Lin-VHL system as the representative one.

[3] = system: Src protein kinase, kit, PDGFR; assay: Degradation of other tyrosine kinase receptors
BCR-ABL protein [4] = target: T2, BCR-ABL protein (Homo sapiens, UniProt P00519); assay: Western blot degradation of BCR-ABL in K562 cells; format: cell-based; design: Western blot was used to detect the expression of BCR-ABL and c-ABL protein in K562 cells; BCR (fusion partner, P11274); endogenous in cells; host or cells: K562; the other entry of the earlier key: BCR (P11274, Breakpoint cluster region protein); settings: 16 hours, 1 nM-10 μM
Procedure, shortened: (§3)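 Lysates were normalized by Bradford and run on SDS-PAGE with nitrocellulose transfer. DC50 was derived from band intensities by non-linear regression.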

c-ABL protein [5] = target: T1, c-ABL protein; assay: Western blot degradation of c-ABL in K562 cells; format: cell-based; design: Western blot was used to detect the expression of BCR-ABL and c-ABL protein in K562 cells; endogenous in cells; host or cells: K562; settings: 16 hours, 1 nM-10 μM
Procedure, shortened: as §3

[6] = system: BCR-ABL-G250E/V299L/F317L/F317V; assay: Western blot degradation of BCR-ABL drug resistance mutants in U937 cells; format: cell-based, human; settings: U937 cells stably expressing mutants, 24 hours, 10 nM-10 μM
Method: (1) Establishment of stable BCR-ABL mutant: the target fragment of BCR-ABL was cloned into retroviral vector pmigrl, and then PMIGR1-BCR-ABL-G250E/E255K/V299L/F317L/F317V/T315I/T315A and other mutant forms were obtained by using Stratagene-QuikChange® Site-Directed Mutagenesis Kit. Finally, the cell lines stably expressing BCR-ABL wild type and mutant were established on U937 cells by retrovirus infection system.
(1) Cell seed: Established cells are added to the 24 well plates, with a cell density of 3×10^5/ml and a total volume of 1.5 ml; Four concentration gradients, 10 nm, 100 nm, 1 μM, and 10 μM, are respectively set for PROTAD series compounds. […] After 24 hours of drug treatment, the cells were collected in 1.5 ml ep tube, centrifuged at 3000 rpm for 3 minutes, and then added 30 μL PBS and 30 μL 2×SDS to cell precipitated, lysate Heat at 100° C. for 5 minutes, then placed on ice for 5 minutes, centrifuged at 10000 rpm for 5 minutes, and take the supernatant as the total protein extracted. The effect of SIAS151178 on the mutational BCR-ABL protein was detected by Western blotting.

K562 (BCR-ABL+) cells = assay: CCK-8 proliferation inhibition, K562 cells; format: cell-based, human; settings: Homo sapiens, K562, 48 h, CCK-8, 48 hours of drug treatment; read-out: Proliferative inhibitory activity (IC50, nM) K562 (BCR-ABL+);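 also: Ten-point threefold dilution series starting at 10 µM, absorbance at 450 nm after 2 h with CCK-8, DMSO as negative control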
[7] = system: K562 cell transplantation tumor; assay: BCR-ABL+ K562 cell transplanted tumor model in mice; format: in vivo
Text: (1) Establishment of K562 Luc cells: the target fragment of luciferase was cloned into lentivirus vector Plenti-IRES-ZSGREEN, and a K562-Luc cell line stably expressing luciferase was established on K562 cells by using lentivirus infection system.
as §1

BCR-ABL signal pathway = BCR-ABL signal pathway activity in vivo
Text: as §2

BCR-ABL protein [8] = target: T2, BCR-ABL protein; assay: Degradation of BCR-ABL protein in vivo; design: BCR (fusion partner, P11274); from tissue; host or cells: in vivo; the other entry of the earlier key: BCR (P11274, Breakpoint cluster region protein)
Text: as §2

U937 (BCR-ABL-) cells = assay: CCK-8 proliferation inhibition, U937 cells; format: cell-based, human; settings: Homo sapiens, U-937; CCK-8, 48 hours of drug treatment, highest concentration 10 μM; read-out: Proliferative inhibitory activity (IC50, nM) U937 (BCR-ABL-);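 also: Ten-point threefold dilution series, absorbance at 450 nm after 2 h with CCK-8 reagent, DMSO as negative control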

T2 sequence (P00519 with tags, fused parts or gaps): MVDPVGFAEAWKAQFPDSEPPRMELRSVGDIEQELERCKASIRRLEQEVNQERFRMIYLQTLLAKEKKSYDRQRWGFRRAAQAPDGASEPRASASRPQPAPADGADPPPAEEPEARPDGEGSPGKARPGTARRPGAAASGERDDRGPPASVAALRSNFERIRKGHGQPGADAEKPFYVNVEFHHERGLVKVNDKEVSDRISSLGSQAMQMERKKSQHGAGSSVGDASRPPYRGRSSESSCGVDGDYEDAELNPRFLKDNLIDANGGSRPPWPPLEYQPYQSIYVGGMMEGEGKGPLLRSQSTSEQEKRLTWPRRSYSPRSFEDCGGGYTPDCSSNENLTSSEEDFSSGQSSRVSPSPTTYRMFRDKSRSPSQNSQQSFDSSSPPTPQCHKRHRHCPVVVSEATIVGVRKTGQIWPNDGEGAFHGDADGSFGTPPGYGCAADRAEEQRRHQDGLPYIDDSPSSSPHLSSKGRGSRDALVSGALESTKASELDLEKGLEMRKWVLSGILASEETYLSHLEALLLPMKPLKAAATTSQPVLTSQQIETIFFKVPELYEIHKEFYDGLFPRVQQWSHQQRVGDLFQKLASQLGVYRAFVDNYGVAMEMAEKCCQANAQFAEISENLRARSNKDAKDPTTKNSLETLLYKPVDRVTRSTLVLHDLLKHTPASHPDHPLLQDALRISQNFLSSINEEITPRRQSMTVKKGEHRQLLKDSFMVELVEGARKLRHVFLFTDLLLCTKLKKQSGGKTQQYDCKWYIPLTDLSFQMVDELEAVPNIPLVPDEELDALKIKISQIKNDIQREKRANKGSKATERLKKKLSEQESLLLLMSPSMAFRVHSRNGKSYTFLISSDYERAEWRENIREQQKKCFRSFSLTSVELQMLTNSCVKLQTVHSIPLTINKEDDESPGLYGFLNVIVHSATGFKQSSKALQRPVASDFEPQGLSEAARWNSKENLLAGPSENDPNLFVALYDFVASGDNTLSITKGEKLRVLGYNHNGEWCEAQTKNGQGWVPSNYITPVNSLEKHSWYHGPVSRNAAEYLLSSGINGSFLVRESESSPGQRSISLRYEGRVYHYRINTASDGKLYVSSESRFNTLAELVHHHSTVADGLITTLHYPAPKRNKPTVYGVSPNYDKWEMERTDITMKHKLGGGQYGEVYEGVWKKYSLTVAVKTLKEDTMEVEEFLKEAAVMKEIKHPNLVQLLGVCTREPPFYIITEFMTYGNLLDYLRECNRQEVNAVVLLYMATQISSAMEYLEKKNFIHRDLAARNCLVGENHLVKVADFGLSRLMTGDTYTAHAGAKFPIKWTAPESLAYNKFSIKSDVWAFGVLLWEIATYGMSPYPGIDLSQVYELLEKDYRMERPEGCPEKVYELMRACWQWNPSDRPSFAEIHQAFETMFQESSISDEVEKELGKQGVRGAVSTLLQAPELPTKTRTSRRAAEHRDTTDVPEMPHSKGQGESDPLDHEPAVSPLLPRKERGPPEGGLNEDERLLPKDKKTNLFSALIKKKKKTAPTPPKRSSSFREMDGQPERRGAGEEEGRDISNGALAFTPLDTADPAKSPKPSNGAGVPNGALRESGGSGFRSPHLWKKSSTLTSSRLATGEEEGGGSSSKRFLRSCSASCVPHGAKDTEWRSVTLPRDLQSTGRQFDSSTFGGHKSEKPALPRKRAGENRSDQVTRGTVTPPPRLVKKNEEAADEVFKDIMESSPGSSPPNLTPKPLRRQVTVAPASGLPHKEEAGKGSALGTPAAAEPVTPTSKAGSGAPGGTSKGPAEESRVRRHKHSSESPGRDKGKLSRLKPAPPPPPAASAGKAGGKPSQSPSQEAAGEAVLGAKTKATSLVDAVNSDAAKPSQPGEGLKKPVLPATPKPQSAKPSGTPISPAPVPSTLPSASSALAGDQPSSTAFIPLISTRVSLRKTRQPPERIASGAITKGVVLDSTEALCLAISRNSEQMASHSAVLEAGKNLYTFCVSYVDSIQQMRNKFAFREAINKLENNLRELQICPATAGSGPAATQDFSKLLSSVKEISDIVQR
T1 sequence (P00519 whole entry): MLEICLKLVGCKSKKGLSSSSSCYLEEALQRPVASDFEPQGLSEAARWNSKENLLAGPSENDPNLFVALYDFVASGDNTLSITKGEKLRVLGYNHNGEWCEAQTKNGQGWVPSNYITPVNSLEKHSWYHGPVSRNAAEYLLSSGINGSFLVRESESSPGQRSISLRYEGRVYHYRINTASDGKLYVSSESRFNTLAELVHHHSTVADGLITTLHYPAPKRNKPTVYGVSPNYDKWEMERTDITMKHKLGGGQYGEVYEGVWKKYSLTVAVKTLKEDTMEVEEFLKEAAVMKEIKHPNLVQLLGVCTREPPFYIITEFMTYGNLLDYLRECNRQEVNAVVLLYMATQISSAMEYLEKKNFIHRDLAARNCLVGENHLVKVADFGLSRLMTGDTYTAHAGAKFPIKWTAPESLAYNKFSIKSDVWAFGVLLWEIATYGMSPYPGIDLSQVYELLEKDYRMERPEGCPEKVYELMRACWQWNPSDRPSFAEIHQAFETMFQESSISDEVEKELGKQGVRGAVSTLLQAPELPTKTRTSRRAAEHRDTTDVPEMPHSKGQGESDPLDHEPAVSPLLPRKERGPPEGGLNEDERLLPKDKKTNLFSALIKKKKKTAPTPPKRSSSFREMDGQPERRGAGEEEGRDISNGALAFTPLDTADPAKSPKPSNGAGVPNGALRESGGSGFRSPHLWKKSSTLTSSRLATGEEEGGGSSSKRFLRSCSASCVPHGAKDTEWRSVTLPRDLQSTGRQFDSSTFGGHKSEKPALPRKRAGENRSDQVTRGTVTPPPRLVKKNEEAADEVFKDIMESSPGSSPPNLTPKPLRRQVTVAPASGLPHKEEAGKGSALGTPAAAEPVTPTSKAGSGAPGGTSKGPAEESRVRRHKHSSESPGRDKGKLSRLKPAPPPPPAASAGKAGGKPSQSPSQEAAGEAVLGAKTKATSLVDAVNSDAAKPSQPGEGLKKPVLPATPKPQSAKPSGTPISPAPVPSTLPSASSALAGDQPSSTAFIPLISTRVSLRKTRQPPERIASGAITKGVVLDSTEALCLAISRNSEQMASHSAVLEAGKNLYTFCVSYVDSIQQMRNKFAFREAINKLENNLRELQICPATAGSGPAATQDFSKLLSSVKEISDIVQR

SMILES | DC50 (BCR-ABL protein [4]) | DC50 (c-ABL protein [5]) | IC50 (K562 (BCR-ABL+) cells) | IC50 (U937 (BCR-ABL-) cells) | bodyweight of mice [1] | toxic and side effects [1] | IC50 (HEK293 (BCR-ABL-) cells) | degradation of c-ABL protein in vivo (c-ABL protein [2]) | degradation of other tyrosine kinase receptors [3] | degradation of BCR-ABL mutants related to clinical drug resistance [6] | tumor decrease ([7]; NOD-SCID mice, 15 mg/kg) | growth of K562 cell transplantation tumor ([7]; NOD-SCID mice, 5, 15, 45 mg/kg, 2 weeks) | BCR-ABL signal pathway activity in vivo (BCR-ABL signal pathway) | degradation of BCR-ABL protein in vivo (BCR-ABL protein [8])
Cc1nc(Nc2ncc(C(=O)Nc3c(C)cccc3Cl)s2)cc(N2CCN(C(=O)CCCCCCC(=O)N[C@H](C(=O)N3C[C@H](O)C[C@H]3C(=O)NCc3ccc(-c4scnc4C)cc3)C(C)(C)C)CC2)n1 [SIAIS151178, N-(2-chloro-6-methylphenyl)-2-((6-(4-(8-(((S)-1-((2S,4R)-4-hydroxy-2-((4-(4-methylthiazol-5-yl)benzyl)carbamoyl)pyrrolidin-1-yl)-3,3-dimethyl-1-oxobutan-2-yl)amino)-8-oxooctanoyl)piperazin-1-yl)-2-methylpyrimidin-4-yl)amino)thiazole-5-carboxamide] | 1 to 10 nM | 10 to 100 nM | 41.3 nM | > 10000 nM | no significant effect on the bodyweight of mice | no obvious toxic and side effects were found | > 10000 nM | can also degrade BCR-ABL and c-ABL protein in a dose-dependent manner in vivo | can also degrade other tyrosine kinase receptors, such as Src protein kinase, kit, PDGFR | can significantly degrade the mutant forms of BCR-ABL-G250E/V299L/F317L/F317V in a dose-dependent manner | can cause tumor decrease | can inhibit the growth of K562 cell transplantation tumor in a dose-dependent manner | significantly inhibit the BCR-ABL signal pathway activity | can also degrade BCR-ABL and c-ABL protein in a dose-dependent manner in vivo
COc1cc(Nc2c(C#N)cnc3cc(OCCCN4CCN(C(=O)CCCNc5cccc6c5C(=O)N(C5CCC(=O)NC5=O)C6=O)CC4)c(OC)cc23)c(Cl)cc1Cl (stereo not shown) [SIAIS151162, 4-((2,4-dichloro-5-methoxyphenyl)amino)-7-(3-(4-(4-((2-(2,6-dioxopiperidin-3-yl)-1,3-dioxoisoindolin-4-yl)amino)butanoyl)piperazin-1-yl)propoxy)-6-methoxyquinoline-3-carbonitrile] | 10 to 100 nM | 10 to 100 nM | 712 nM | > 10000 nM | – | – | > 10000 nM | – | – | – | – | – | – | –
Cc1nc(Nc2ncc(C(=O)Nc3c(C)cccc3Cl)s2)cc(N2CCN(C(=O)CCOCCNc3cccc4c3C(=O)N(C3CCC(=O)NC3=O)C4=O)CC2)n1 (stereo not shown) [SIAIS151063, N-(2-chloro-6-methylphenyl)-2-((6-(4-(3-(2-((2-(2,6-dioxopiperidin-3-yl)-1,3-dioxoisoindolin-4-yl)amino)ethoxy)propanoyl)piperazin-1-yl)-2-methylpyrimidin-4-yl)amino)thiazole-5-carboxamide] | 1 to 10 nM | 1 to 10 nM | 2.7 nM | 276 nM | – | – | 972 nM | – | – | – | – | – | – | –

The next lines start with results.

DC50 (BCR-ABL protein [4]) | DC50 (c-ABL protein [5]) | IC50 (K562 (BCR-ABL+) cells) | IC50 (U937 (BCR-ABL-) cells) | SMILES | bodyweight of mice [1] | toxic and side effects [1] | IC50 (HEK293 (BCR-ABL-) cells) | degradation of c-ABL protein in vivo (c-ABL protein [2]) | degradation of other tyrosine kinase receptors [3] | degradation of BCR-ABL mutants related to clinical drug resistance [6] | tumor decrease ([7]; NOD-SCID mice, 15 mg/kg) | growth of K562 cell transplantation tumor ([7]; NOD-SCID mice, 5, 15, 45 mg/kg, 2 weeks) | BCR-ABL signal pathway activity in vivo (BCR-ABL signal pathway) | degradation of BCR-ABL protein in vivo (BCR-ABL protein [8])
100 to 1000 nM | 100 to 1000 nM | 78 nM | > 10000 nM | Cc1nc(Nc2ncc(C(=O)Nc3c(C)cccc3Cl)s2)cc(N2CCN(C(=O)CCC(=O)N[C@H](C(=O)N3C[C@H](O)C[C@H]3C(=O)NCc3ccc(-c4scnc4C)cc3)C(C)(C)C)CC2)n1 [SIAIS151174, N-(2-chloro-6-methylphenyl)-2-((6-(4-(4-(((S)-1-((2S,4R)-4-hydroxy-2-((4-(4-methylthiazol-5-yl)benzyl)carbamoyl)pyrrolidin-1-yl)-3,3-dimethyl-1-oxobutan-2-yl)amino)-4-oxobutanoyl)piperazin-1-yl)-2-methylpyrimidin-4-yl)amino)thiazole-5-carboxamide] | – | – | > 10000 nM | – | – | – | – | – | – | –
1 to 10 nM | 1 to 10 nM | 77.6 nM | > 10000 nM | COc1cc(Nc2c(C#N)cnc3cc(OCCCN4CCN(C(=O)CCC(=O)NCCNc5cccc6c5C(=O)N(C5CCC(=O)NC5=O)C6=O)CC4)c(OC)cc23)c(Cl)cc1Cl (stereo not shown) [SIAIS164136, 4-(4-(3-((3-cyano-4-((2,4-dichloro-5-methoxyphenyl)amino)-6-methoxyquinolin-7-yl)oxy)propyl)piperazin-1-yl)-N-(2-((2-(2,6-dioxopiperidin-3-yl)-1,3-dioxoisoindolin-4-yl)amino)ethyl)-4-oxobutanamide] | – | – | > 10000 nM | – | – | – | – | – | – | –
